Source: paper PMC11062922 (Nature Chemical Biology, 2023)

Legend:
IRAK1 = experiment: Kinobeads competition binding: IRAK1; set-up: species or system human; conditions: target IRAK1
CDK17 = experiment: Kinobeads competition binding: CDK17; set-up: species or system human; conditions: target CDK17
JAK1 = experiment: Kinobeads competition binding: JAK1; set-up: species or system human; conditions: target JAK1;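 further: target engagement share of this target among all targets at its Kdapp concentration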
ACOX3 = experiment: Kinobeads competition binding: ACOX3; set-up: species or system human; conditions: target ACOX3;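 further: share of all-target engagement taken by this protein at its own Kdapp concentration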
EPHA4 = biological target: T1, EPHA4 (Homo sapiens, UniProt P54764); experiment: Kinobeads competition binding: EPHA4; conditions: target EPHA4
T1 construct: endogenous in cells
From the text: Supplement 41589_2023_1459_MOESM4_ESM.xlsx, sheet "CATDS matrix" | column: EPHA4

FLAD1 = experiment: Kinobeads competition binding: FLAD1; set-up: species or system human; conditions: target FLAD1;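 further: selectivity score: engagement of this protein divided by summed engagement of all targets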
AGK = experiment: Kinobeads competition binding: AGK; set-up: species or system human; conditions: target AGK
FGFR1 = biological target: T2, FGFR1 (Homo sapiens, UniProt P11362); experiment: Kinobeads competition binding: FGFR1; conditions: target FGFR1
T2 construct: endogenous in cells
From the text: Supplement 41589_2023_1459_MOESM4_ESM.xlsx, sheet "CATDS matrix" | column: FGFR1

CSNK1G3 = biological target: T3, CSNK1G3 (Homo sapiens, UniProt Q9Y6M4); experiment: Kinobeads competition binding: CSNK1G3; conditions: target CSNK1G3;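 further: share of total target engagement due to this protein at one drug concentration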
T3 construct: endogenous in cells
T3 sequence (Q9Y6M4 whole entry): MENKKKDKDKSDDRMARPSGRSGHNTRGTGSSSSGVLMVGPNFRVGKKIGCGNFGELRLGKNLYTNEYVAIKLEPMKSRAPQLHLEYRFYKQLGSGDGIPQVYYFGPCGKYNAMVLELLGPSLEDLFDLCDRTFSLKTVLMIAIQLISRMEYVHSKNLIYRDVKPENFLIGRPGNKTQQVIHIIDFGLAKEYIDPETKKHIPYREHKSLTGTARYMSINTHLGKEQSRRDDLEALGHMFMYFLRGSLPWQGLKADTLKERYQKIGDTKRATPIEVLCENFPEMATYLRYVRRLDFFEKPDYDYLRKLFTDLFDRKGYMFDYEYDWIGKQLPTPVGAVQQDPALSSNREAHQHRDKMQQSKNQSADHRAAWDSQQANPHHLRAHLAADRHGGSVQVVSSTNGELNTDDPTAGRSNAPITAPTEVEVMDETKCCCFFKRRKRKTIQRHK
From the text: Supplement 41589_2023_1459_MOESM4_ESM.xlsx, sheet "CATDS matrix" | column: CSNK1G3

LYN = experiment: Kinobeads competition binding: LYN; set-up: species or system human; conditions: target LYN
PIK3CG = biological target: T4, PIK3CG (Homo sapiens, UniProt P48736); experiment: Kinobeads competition binding: PIK3CG; conditions: target PIK3CG;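 further: selectivity score: engagement of this protein divided by summed engagement of all targets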
T4 construct: endogenous in cells
From the text: Supplement 41589_2023_1459_MOESM4_ESM.xlsx, sheet "CATDS matrix" | column: PIK3CG

HSP90AA1 = experiment: Kinobeads competition binding: HSP90AA1; set-up: species or system human; conditions: target HSP90AA1;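 further: share of total target engagement due to this protein at one drug concentration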
ACVR2B = experiment: Kinobeads competition binding: ACVR2B; set-up: species or system human; conditions: target ACVR2B
CAMKK2 = biological target: T5, CAMKK2 (Homo sapiens, UniProt Q96RR4); experiment: Kinobeads competition binding: CAMKK2; conditions: target CAMKK2
T5 construct: endogenous in cells
From the text: Supplement 41589_2023_1459_MOESM4_ESM.xlsx, sheet "CATDS matrix" | column: CAMKK2

IRAK4 = experiment: Kinobeads competition binding: IRAK4; set-up: species or system human; conditions: target IRAK4
CSNK1E = biological target: T6, CSNK1E (Homo sapiens, UniProt P49674); experiment: Kinobeads competition binding: CSNK1E; conditions: target CSNK1E
T6 construct: endogenous in cells
T6 sequence (P49674 whole entry): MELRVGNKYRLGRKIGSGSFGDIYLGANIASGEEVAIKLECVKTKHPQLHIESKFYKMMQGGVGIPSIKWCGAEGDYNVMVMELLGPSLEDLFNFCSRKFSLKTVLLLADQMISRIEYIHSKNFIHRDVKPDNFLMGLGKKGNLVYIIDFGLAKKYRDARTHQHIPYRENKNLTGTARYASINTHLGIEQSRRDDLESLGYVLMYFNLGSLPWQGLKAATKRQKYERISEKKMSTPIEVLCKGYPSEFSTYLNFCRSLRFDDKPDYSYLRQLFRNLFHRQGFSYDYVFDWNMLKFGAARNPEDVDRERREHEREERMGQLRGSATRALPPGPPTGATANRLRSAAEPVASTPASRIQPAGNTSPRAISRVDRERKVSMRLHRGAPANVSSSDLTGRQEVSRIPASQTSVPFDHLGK

PAK6 = biological target: T7, PAK6 (Homo sapiens, UniProt Q9NQU5); experiment: Kinobeads competition binding: PAK6; conditions: target PAK6
T7 construct: a mixture of lysates from five cancer cell lines; endogenous in cells

NEK1 = experiment: Kinobeads competition binding: NEK1; set-up: species or system human; conditions: target NEK1
CAMK2D = biological target: T8, CAMK2D (Homo sapiens, UniProt Q13557); experiment: Kinobeads competition binding: CAMK2D; conditions: target CAMK2D;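 further: selectivity score: engagement of this protein divided by summed engagement of all targets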
T8 construct: endogenous in cells
T8 sequence (Q13557 whole entry): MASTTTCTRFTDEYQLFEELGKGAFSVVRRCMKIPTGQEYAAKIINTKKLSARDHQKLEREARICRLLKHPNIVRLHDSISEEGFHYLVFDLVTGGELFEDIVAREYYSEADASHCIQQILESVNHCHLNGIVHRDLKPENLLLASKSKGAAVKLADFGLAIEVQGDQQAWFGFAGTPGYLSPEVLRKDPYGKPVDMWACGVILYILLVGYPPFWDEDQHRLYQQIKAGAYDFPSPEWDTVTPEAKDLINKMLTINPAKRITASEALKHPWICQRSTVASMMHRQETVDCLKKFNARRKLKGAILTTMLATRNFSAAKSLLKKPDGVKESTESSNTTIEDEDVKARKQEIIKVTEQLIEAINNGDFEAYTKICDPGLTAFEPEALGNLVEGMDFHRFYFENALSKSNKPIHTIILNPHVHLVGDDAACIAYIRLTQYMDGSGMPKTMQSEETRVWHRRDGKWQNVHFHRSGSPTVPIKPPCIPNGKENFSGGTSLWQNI
From the text: Supplement 41589_2023_1459_MOESM4_ESM.xlsx, sheet "CATDS matrix" | column: CAMK2D

MAPK7 = experiment: Kinobeads competition binding: MAPK7; set-up: species or system human; conditions: target MAPK7
EPHA7 = biological target: T9, EPHA7 (Homo sapiens, UniProt Q15375); experiment: Kinobeads competition binding: EPHA7; conditions: target EPHA7
T9 construct: endogenous in cells
T9 sequence (Q15375 28-998): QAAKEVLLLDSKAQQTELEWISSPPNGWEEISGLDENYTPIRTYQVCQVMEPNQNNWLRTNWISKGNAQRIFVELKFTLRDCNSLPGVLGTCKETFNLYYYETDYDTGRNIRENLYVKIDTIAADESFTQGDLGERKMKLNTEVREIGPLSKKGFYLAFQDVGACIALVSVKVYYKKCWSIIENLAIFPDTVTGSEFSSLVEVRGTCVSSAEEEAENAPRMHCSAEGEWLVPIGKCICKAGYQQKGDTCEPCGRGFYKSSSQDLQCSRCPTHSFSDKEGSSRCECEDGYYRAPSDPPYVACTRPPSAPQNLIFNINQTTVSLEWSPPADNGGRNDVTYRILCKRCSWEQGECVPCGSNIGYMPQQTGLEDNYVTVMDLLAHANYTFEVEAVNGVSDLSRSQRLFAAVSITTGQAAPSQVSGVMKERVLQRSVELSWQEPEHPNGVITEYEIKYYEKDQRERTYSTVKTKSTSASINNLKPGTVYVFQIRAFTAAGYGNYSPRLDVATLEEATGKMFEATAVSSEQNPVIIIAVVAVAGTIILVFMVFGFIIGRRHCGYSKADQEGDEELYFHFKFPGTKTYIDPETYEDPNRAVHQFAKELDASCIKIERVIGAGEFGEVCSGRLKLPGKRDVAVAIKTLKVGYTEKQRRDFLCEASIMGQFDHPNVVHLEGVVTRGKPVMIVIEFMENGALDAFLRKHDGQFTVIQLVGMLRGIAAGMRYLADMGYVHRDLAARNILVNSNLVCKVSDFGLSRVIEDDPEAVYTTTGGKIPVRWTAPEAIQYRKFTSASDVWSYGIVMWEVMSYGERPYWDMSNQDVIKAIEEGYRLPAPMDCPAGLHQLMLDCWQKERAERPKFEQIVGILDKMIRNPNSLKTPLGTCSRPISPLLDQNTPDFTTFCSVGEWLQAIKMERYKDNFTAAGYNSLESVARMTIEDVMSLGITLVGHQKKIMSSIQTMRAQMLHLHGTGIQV
From the text: Supplement 41589_2023_1459_MOESM4_ESM.xlsx, sheet "CATDS matrix" | column: EPHA7

PIK3CA = biological target: T10, PIK3CA (Homo sapiens, UniProt P42336); experiment: Kinobeads competition binding: PIK3CA; conditions: target PIK3CA;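 further: share of all-target engagement taken by this protein at its own Kdapp concentration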
T10 construct: a mixture of lysates from five cancer cell lines; endogenous in cells
T10 sequence (P42336 whole entry): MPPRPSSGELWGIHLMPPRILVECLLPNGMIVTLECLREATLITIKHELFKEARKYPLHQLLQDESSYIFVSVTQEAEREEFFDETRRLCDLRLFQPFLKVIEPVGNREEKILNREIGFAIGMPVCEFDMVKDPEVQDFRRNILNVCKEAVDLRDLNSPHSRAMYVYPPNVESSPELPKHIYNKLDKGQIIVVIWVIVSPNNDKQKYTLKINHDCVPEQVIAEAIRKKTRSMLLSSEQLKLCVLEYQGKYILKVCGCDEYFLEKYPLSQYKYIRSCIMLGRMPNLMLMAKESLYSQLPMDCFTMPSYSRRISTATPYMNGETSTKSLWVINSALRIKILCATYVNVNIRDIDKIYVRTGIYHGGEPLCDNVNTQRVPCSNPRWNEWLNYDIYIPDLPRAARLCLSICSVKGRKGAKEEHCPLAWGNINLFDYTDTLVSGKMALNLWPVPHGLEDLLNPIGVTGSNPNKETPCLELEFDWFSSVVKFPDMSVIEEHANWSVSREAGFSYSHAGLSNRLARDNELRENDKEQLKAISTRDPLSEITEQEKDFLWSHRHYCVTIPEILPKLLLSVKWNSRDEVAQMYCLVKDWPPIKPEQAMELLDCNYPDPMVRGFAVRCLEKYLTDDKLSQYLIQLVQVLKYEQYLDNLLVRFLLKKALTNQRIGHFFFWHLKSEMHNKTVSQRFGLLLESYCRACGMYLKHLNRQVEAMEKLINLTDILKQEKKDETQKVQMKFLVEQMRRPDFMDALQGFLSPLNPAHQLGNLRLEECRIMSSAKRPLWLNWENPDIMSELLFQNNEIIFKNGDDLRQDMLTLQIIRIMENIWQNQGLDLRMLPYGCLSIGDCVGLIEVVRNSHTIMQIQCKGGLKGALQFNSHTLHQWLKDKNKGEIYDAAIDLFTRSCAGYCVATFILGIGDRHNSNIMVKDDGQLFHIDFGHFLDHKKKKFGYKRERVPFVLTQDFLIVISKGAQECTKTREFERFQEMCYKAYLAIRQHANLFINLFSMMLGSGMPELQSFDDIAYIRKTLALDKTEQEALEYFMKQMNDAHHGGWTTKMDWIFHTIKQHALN
T10 sequence (P27986 whole entry partner): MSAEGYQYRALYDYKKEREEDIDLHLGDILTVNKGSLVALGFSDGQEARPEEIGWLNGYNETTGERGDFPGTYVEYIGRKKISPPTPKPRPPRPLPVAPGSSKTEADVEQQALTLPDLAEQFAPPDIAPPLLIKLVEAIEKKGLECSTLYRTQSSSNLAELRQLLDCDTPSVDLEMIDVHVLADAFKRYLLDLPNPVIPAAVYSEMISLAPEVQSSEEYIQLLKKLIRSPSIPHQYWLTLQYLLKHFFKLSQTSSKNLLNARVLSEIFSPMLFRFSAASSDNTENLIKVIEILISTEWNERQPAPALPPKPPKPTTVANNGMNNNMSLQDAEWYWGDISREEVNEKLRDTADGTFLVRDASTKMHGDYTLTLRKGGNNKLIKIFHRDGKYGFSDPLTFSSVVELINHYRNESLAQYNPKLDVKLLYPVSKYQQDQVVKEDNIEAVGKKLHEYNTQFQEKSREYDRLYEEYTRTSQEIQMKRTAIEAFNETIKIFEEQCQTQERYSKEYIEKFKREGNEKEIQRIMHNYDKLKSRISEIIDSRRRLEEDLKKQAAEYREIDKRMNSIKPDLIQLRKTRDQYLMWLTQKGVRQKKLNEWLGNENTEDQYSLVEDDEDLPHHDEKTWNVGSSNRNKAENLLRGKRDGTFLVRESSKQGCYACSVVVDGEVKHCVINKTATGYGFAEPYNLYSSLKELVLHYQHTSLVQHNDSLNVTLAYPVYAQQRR
From the text: Supplement 41589_2023_1459_MOESM4_ESM.xlsx, sheet "CATDS matrix" | column: PIK3CA

PIK3CD = biological target: T11, PIK3CD (Homo sapiens, UniProt O00329); experiment: Kinobeads competition binding: PIK3CD; conditions: target PIK3CD
T11 construct: a mixture of lysates from five cancer cell lines; endogenous in cells

ADCK1 = biological target: T12, ADCK1 (Homo sapiens, UniProt Q86TW2); experiment: Kinobeads competition binding: ADCK1; conditions: target ADCK1
T12 construct: endogenous in cells
T12 sequence (Q86TW2 1-530): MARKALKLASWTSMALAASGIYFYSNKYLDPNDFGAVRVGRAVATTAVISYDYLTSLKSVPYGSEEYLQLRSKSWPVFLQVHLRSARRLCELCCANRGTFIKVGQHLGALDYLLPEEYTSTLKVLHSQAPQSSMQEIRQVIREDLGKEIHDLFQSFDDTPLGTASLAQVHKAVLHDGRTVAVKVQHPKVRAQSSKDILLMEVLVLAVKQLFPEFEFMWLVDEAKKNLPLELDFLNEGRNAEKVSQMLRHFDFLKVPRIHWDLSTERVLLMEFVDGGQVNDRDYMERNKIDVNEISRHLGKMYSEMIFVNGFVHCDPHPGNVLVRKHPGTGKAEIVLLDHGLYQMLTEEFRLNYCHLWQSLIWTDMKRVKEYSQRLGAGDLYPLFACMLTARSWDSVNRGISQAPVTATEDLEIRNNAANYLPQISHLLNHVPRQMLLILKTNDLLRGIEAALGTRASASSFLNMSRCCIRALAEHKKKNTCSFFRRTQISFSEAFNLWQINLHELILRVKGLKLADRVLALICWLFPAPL
From the text: Supplement 41589_2023_1459_MOESM4_ESM.xlsx, sheet "CATDS matrix" | column: ADCK1

GSK3A = biological target: T13, GSK3A (Homo sapiens, UniProt P49840); experiment: Kinobeads competition binding: GSK3A; conditions: target GSK3A
T13 construct: endogenous in cells
T13 sequence (P49840 whole entry): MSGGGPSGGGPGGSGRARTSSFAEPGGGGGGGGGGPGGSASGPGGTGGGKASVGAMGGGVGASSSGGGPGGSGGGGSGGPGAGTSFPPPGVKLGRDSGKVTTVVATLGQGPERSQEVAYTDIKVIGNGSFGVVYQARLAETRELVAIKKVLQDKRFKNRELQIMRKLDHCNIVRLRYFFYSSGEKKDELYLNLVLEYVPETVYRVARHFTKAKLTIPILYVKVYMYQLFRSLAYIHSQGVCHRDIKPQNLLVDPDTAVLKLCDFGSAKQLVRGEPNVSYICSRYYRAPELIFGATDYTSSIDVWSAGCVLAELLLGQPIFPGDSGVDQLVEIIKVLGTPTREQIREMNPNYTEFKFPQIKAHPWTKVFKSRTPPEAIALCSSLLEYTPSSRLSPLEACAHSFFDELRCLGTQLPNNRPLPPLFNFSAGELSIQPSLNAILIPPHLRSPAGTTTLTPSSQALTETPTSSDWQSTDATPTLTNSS

MYLK3 = experiment: Kinobeads competition binding: MYLK3; set-up: species or system human; conditions: target MYLK3;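 further: share of all-target engagement taken by this protein at its own Kdapp concentration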

| SMILES | CATDS (IRAK1) | CATDS (CDK17) | CATDS (JAK1) | CATDS (ACOX3) | CATDS (EPHA4) | CATDS (FLAD1) | CATDS (AGK) | CATDS (FGFR1) | CATDS (CSNK1G3) | CATDS (LYN) | CATDS (PIK3CG) | CATDS (HSP90AA1) | CATDS (ACVR2B) | CATDS (CAMKK2) | CATDS (IRAK4) | CATDS (CAMK2D) | CATDS (EPHA7) | CATDS (PIK3CA) | CATDS (ADCK1) | CATDS (GSK3A) | also measured |
| --- | --- | --- | --- | --- | --- | --- | --- | --- | --- | --- | --- | --- | --- | --- | --- | --- | --- | --- | --- | --- | --- |
| Nc1ncnc2[nH]c(-c3ccccc3)nc12 [AH5015_KCGS] | 0 | 0 | 0 | 0 | 0 | 0 | 0 | 0 | 0 | 0 | 0 | 0 | 0 | 0 | 0 | 0 | 0 | 0 | 0 | 0.1015 | CATDS (CSNK1E): 0; CATDS (PAK6): 0; CATDS (NEK1): 0; CATDS (MAPK7): 0; CATDS (PIK3CD): 0.05532; CATDS (MYLK3): 0 |
| CCN1CCN(Cc2ccc(Nc3ncc(F)c(-c4cc(F)c5nc(C)n(C(C)C)c5c4)n3)nc2)CC1 [Abemaciclib] | 0.02986 | 0.02553 | 0 | 0 | 0 | 0 | 0 | 0 | 0 | 0 | 0 | 0 | 0 | 0 | 0 | 0.08654 | 0 | 0 | 0.02486 | 0.08929 | CATDS (PAK6): 0; CATDS (NEK1): 0; CATDS (MAPK7): 0; CATDS (PIK3CD): 0; CATDS (MYLK3): 0 |
| CN(C)C/C=C/C(=O)Nc1cc2c(Nc3ccc(F)c(Cl)c3)ncnc2cc1O[C@H]1CCOC1 [Afatinib] |  |  |  | 0 | 0 | 0 | 0 | 0 | 0 |  | 0 | 0 |  | 0 |  | 0 | 0 | 0 | 0 | 0 | CATDS (CSNK1E): 0 |
| CCc1cc2c(cc1N1CCC(N3CCOCC3)CC1)C(C)(C)c1[nH]c3cc(C#N)ccc3c1C2=O [Alectinib] | 0 | 0 | 0 | 0 | 0 | 0 | 0 | 0 | 0 | 0 | 0 | 0 | 0 | 0 | 0 | 0 | 0 | 0 | 0 | 0 | CATDS (CSNK1E): 0; CATDS (PAK6): 0; CATDS (NEK1): 0; CATDS (MAPK7): 0; CATDS (PIK3CD): 0; CATDS (MYLK3): 0 |
| N#CC1(c2ccc(NC(=O)c3cccnc3NCc3ccncc3)cc2)CCCC1 [Apatinib] | 0 | 0 | 0 | 0 | 0 | 0 | 0 | 0 | 0 | 0 | 0 | 0 | 0 | 0 | 0 | 0 | 0 | 0 | 0 | 0 | CATDS (CSNK1E): 0; CATDS (PAK6): 0; CATDS (NEK1): 0; CATDS (MAPK7): 0; CATDS (PIK3CD): 0; CATDS (MYLK3): 0 |
